According to patent publication EP0293826A2, “Therapeutic and prophylactic application of sulfated polysaccharides against AIDS” (priority 1987, dated 1988):

Assays:
[1] = tested on: human immuno deficiency virus (HIV); conditions: cited from earlier work
HIV-1 = test: Inhibition of HIV-1 replication in MT-4 cells (trypan blue exclusion, day 5); format: cell-based
Protocol: MT-4 cells were suspended at 5 x 10^s cells per ml and infected with HIV-1 at 1000 CCIDso per ml (1 CCIDso being the 50% cell culture infective dose). After 2 h-incubation at 37° C, 5 x 10^4 cells per 100 µl were brought into each well of a flat-bottomed 96-well plastic microtiter tray containing 100 µl of various dilutions of the test compounds. After 5 days incubation at 37° C, the number of viable cells was determined microscopically in an hemacytometer by trypan blue exclusion. Anti-HIV-1 activity of the compounds was also determined by monitoring viral antigen expression in HUT-78 cells at day 14 after infection, measured by indirect immunifluorescence, using a polyclonal antibody as probe.

Row | Compound | concentration completely protecting ATH8 cells against the cytopathogenicity of HIV [1] | concentration at which no anti-HIV-1 activity was shown (HIV-1) [µg/mL]
1 | Cc1cn([C@H]2C[C@H](N=[N+]=[N-])[C@@H](CO)O2)c(=O)[nH]c1=O [AZT, 3 -azido-2',3 -dideoxythymidine] | 1-5 µ.M | –
2 | Cc1cc(-c2ccc(/N=N/c3ccc4c(S(=O)(=O)O)cc(S(=O)(=O)O)c(N)c4c3O)c(C)c2)ccc1/N=N/c1ccc2c(S(=O)(=O)O)cc(S(=O)(=O)O)c(N)c2c1O [Evans Blue] | 25 µg/mL | –
3 | N[C@H]1C(O)O[C@H](CO)[C@@H](O)[C@@H]1OS(=O)(=O)O (stereo partly shown) [glucosamine 3-sulfate, glucosamine-3-sulfate] | – | > 125
4 | N[C@H]1C(O)O[C@H](COS(=O)(=O)O)[C@@H](O)[C@@H]1O (stereo partly shown) [glucosamine 6-sulfate, glucosamine-6-sulfate] | – | > 125
5 | Cc1ccc(C(=O)Nc2ccc(S(=O)(=O)O)c3cc(S(=O)(=O)O)cc(S(=O)(=O)O)c23)cc1NC(=O)c1cccc(NC(=O)Nc2cccc(C(=O)Nc3cc(C(=O)Nc4ccc(S(=O)(=O)O)c5cc(S(=O)(=O)O)cc(S(=O)(=O)O)c45)ccc3C)c2)c1 [suramin] | 50 µg/mL | –
6 | glucosamine-2,3-disulfate [glucosamine 2,3-disulfate] | – | > 125
7 | glucosamine-2-sulfate [glucosamine 2-sulfate] | – | > 125
